Source: US20250346845A1, “CELL-[…]” (TOPPAN HOLDINGS INC., priority 2023, published 2025)

Assays:
Format in all cases: cell-based, human
Settings in all cases: drug added day 4, read day 7, general-purpose medium
HT29 cells [1] = experiment: Anti-cancer drug evaluation, HT29 cells on stromal cell layer, 3D culture method, EpCAM immunofluorescence
Experimental: 2.0×10^6 NHDFs and 3.0×10^4 HUVECs were suspended in an equal volume mixture of 150 μL of 0.2 mg/mL heparin/50 mM Tris-HCl buffer (pH 7.4) and 150 μL of 0.2 mg/mL collagen/5 mM acetate solution (pH 3.7). The resulting mixture was centrifuged at 1,000×g for 1 minute at room temperature to obtain a viscous mass. The obtained viscous mass was suspended in DMEM containing 10% FBS. The entire suspension was seeded in a 24-well Transwell culture insert and centrifuged at 400×g (gravitational acceleration) at room temperature for 1 minute. As a result, a cell layer (i.e., a cell layer containing cells forming the stroma) was formed on the membrane of the Transwell culture insert.
Subsequently, HT29 cells were seeded on the cell layer at 1×10^3 cells/well and cultured in the general-purpose medium shown in Table 4 above. On the fourth day after the start of the culture, an anti-cancer drug SN-38 (Selleck, S4908) was added to the medium in each well at a concentration of 0, 0.01, 0.1, 1 or 10 μM.
On the seventh day after the start of culture, the cells were fixed and stained for EpCAM with immunofluorescence staining, and the stained cells were counted as HT29 cells. More specifically, the area of fluorescence emission from cancer cells was calculated using a microscope system (Operetta CLS, PerkinElmer) in the fluorescence mode (fluorescence: Alexa 647). The cell viability was calculated using the following formula (3) to evaluate the drug efficacy.

HT29 cells [2] = experiment: Anti-cancer drug evaluation, HT29 cells cultured using stromal stamp, ATP assay
Experimental: HT29 (ATCC, HTB-38), a human colon adenocarcinoma cell line, was seeded in the third vessel (24-well plate) in Table 3 above at 1×10^3 cells/well. The stromal stamp prepared in Example 1 was then placed on each well.
(§1) On the fourth day after the start of the culture, an anti-cancer drug SN-38 (Selleck, S4908) was added to the medium in each well at a concentration of 0, 0.01, 0.1, 1 or 10 μM. On the seventh day after the start of culture, the stromal stamps were removed and the number of HT29 cells was counted by ATP assay. The cell viability was calculated using the following formula (2) to evaluate the drug efficacy.

HT29 cells [3] = experiment: Anti-cancer drug evaluation, HT29 cells, 2D culture method, ATP assay
Experimental: as §1, with “the” for “the stromal stamps were removed and the”, “above” for “following”

CCc1c2c(nc3ccc(O)cc13)-c1cc3c(c(=O)n1C2)COC(=O)[C@]3(O)CC [SN-38]
Cell viability (%) (HT29 cells [1]; 0.01 μM): 97.8 ± 20.04% | Cell viability (%) (HT29 cells [1]; 0.1 μM): 72.87 ± 14.57% | Cell viability (%) (HT29 cells [1]; 1 μM): 54.21 ± 13.05% | Cell viability (%) (HT29 cells [1]; 10 μM): 34.2 ± 9.47% | Cell viability (%) (HT29 cells [2]; 0.01 μM): 103.3 ± 14.5% | Cell viability (%) (HT29 cells [2]; 0.1 μM): 72.87 ± 14.57% | Cell viability (%) (HT29 cells [2]; 1 μM): 49.3 ± 13.05% | Cell viability (%) (HT29 cells [2]; 10 μM): 36.5 ± 10.24% | Cell viability (%) (HT29 cells [3]; 0.01 μM): 78.3 ± 9.45% | Cell viability (%) (HT29 cells [3]; 0.1 μM): 54.3 ± 5.45% | Cell viability (%) (HT29 cells [3]; 1 μM): 35 ± 3.24% | Cell viability (%) (HT29 cells [3]; 10 μM): 21.3 ± 4.23%
